By IC50 is commonly meant the concentration needed to halve the response being measured.

The text below walks through data of paper PMC12866179, “Oxidized MIF is an Alzheimer’s disease drug target relaying external risk factors to tau pathology” (Cell Reports Medicine, 2025).

Experiment [1] has as its system HSV-1. Briefly: Plaque assay of HSV-1-infected SH-SY5Y-tau-P301S control and MIF-knockdown cells. The format is cell-based, HSV-1 KOS strain. As for the experimental part: Virus titer determination was carried out in 25-cm^2 flasks or 6-well plates with confluent Vero cells. The virus stock was serially diluted in Medium 199. 1 mL of each of the dilutions was added to the Vero cells in duplicates and incubated for 2h. Then the inoculum was aspirated and DMEM supplemented with 5% NBCS and 7.5 μg/mL human immunoglobulin (Sigma) was added. After two days the cells were washed twice with PBS and fixed with MeOH for 5 min at RT. Then 1:10 diluted KaryoMax Giemsa stain solution (Gibco) was added to the cells and incubated for 20 min at RT. Following washing with water the plaques were counted under the microscope and the titer was calculated.
4x10^5 Vero cells, 8x10^5 SH-SY5Y or 2x10^6 differentiated LUHMES (differentiation day 6) cells were seeded into 12-well plates. After 24h the cells were treated with compounds (as indicated in the figures) and after 1h they were infected with HSV-1 applying MOIs as described in the figures. After 20h (or at indicated time points) cells were either washed twice with PBS, then lysed in cold PBS/1% NP40 including the cOmplete EDTA-free protease inhibitor cocktail (Roche) and phosphatase inhibitor cocktail (Sigma) or virus was released by freeze-thawing and ultrasonic treatment for analysis in viral plaque assay (see above).
[…] Two-wa y ANOVA (Sidak´s post-hoc) […]

Experiment [2] has as its system HSV-1. In words: Virus plaque assay in HSV-1-infected Vero cells. The note with it: Human alphaherpesvirus 1, read-out: IC50, HSV-1 replication, plaque assay. In kind it is cell-based, HSV-1 KOS strain. As for the experimental part: Virus titer determination was carried out in 25-cm^2 flasks or 6-well plates with confluent Vero cells. The virus stock was serially diluted in Medium 199. 1 mL of each of the dilutions was added to the Vero cells in duplicates and incubated for 2h. Then the inoculum was aspirated and DMEM supplemented with 5% NBCS and 7.5 μg/mL human immunoglobulin (Sigma) was added. After two days the cells were washed twice with PBS and fixed with MeOH for 5 min at RT. Then 1:10 diluted KaryoMax Giemsa stain solution (Gibco) was added to the cells and incubated for 20 min at RT. Following washing with water the plaques were counted under the microscope and the titer was calculated. 4x10^5 Vero cells, 8x10^5 SH-SY5Y or 2x10^6 differentiated LUHMES (differentiation day 6) cells were seeded into 12-well plates. After 24h the cells were treated with compounds (as indicated in the figures) and after 1h they were infected with HSV-1 applying MOIs as described in the figures. After 20h (or at indicated time points) cells were either washed twice with PBS, then lysed in cold PBS/1% NP40 including the cOmplete EDTA-free protease inhibitor cocktail (Roche) and phosphatase inhibitor cocktail (Sigma) or virus was released by freeze-thawing and ultrasonic treatment for analysis in viral plaque assay (see above).

As to `CCc1cc(N2CCCC2)cc2[s+]c3cc(N4CCCC4)cc(C)c3nc12.[I-]` [PAV-174, 3,7-Di(pyrrolidine-1-yl) 1-ethyl-9-methyl-phenothiazin-5-ium iodide], the “HSV-1 titer-lowering effect in MIF-knockdown cells” value in experiment [1] was “did not exert comparable titer-lowering effects”. Besides, in experiment [2], the IC50 was determined as 0.034 µM.
